Assays:
IFN-γ-pSTAT1 = experiment: STAT phosphorylation assay IFN-γ-pSTAT1; format: cell-based; conditions: Homo sapiens, 0.25 h; IFN-γ (50 ng/ml) 15 min, phospho-STAT1 Western blot normalized to GAPDH; read-out: Selectivity assays (STATs) % Inhibition IFN-γ-pSTAT1
Protocol: (§1) 0.3 to 0.5×10^6 Reporter cells (IL-23, IL-2, IFNα or IFNγ on HEK293 background purchased from InvivoGen) were seeded per well in 0.8 mL of DMVEM cell medium supplemented with 100 U/ml-100 μg/ml Pen-Strep and 10% FBS in 12 or 6-well plates and incubated overnight at 370 C, 5% CO2, 95% humidity. 0.1 mL test compounds serially diluted in DMSO and further diluted (10×) in intermediate plate containing cell treatment medium were prepared and added to the wells. The plates were incubated at 37° C. for 1 hr. Control wells contained 1′% DMSO prepared in cell medium. Post incubation, respective reporter cells were stimulated with 0.1 mL of either IL-23 (50 ng/ml; Miltenyl Biotech, cat #130-095-758) for 45 min or IL-2 (20 ng/ml) (Miltenyl Biotech, cat #130-097-742) for 15 min or IFNα/β (10 ng/ml) (Invivogen, cat #rcyc-hifna2b) for 15 min or IFN-γ (50 ng/ml) (Invivogen, cat #rcyec-hifng) for 15 min. Post stimulation cells were washed with DPBS once and lysed with 100 μL of RIPA buffer and placed on ice for 5 min. The lysates were then transferred to 1.5 mL Eppendorf tubes and centrifuged for 5 minutes at 10000 rpm at 4° C. and the supernatants either stored at −80° C. or used for protein estimation.
Samples were diluted 5× in cell lysis buffer and total protein concentration was determined in 96-well using Bradford Protein Assay following manufacturer's instructions. Western blot assay was performed using Protein Simple Wes Master Kit (SM-W004/DM-001) and device, following manufacturer's instructions. 1 to 2 mg/mL of total proteins were loaded per sample in 4 μL volume; phospho-STAT1, 3 or 5 antibodies (1:25) and GAPDH antibodies were diluted as indicated.
(§2) Western blot results were analysed using Compass 2.7.1 software and phospho-STAT quantity (AUC values) was normalized to GAPDH quantity (AUC values) for each sample.

JAK2-JH1 = target: T1, JAK2-JH1 (Homo sapiens, UniProt O60674); experiment: HTRF-based selectivity assay, JAK2 catalytic domain; format: biochemical; conditions: kinase domain (JH1), ATP 14.7 μM
T1 construct: recombinant purified His or GST-tagged catalytic domain for each enzyme; made in house
Protocol: (§3) The ability of compounds to inhibit the activity of JAK1, JAK2, JAK3 and TYK2 is measured using a recombinant purified His or GST-tagged catalytic domain for each enzyme (JAK1, JAK2 and TYK2 are generated in-house; JAK3 was purchased from Carna biosciences, Cat #08-046) in an HTRF format biochemical assay. The reactions employs a commercial peptide substrate from Cisbio (Cat #62TK0PEC). The basic assay protocol is as follows: first, 2.5 µL of diluted compounds (4×) in DMSO are dispensed into a 384-well Optiplate. Next, 2.5 μL of enzyme (final concentrations for enzymes are: TYK2-700 ng/mL, JAK1-80.6 ng/mL, JAK2-2.1 ng/mL and JAK3-171.8 ng/mL) is added and incubated at RT for 5-20 min. Finally, 5 μl of mixture of 2×ATP [Final concentration 20 μM for TYK2, 21.43 μM for JAK1, 14.7 μM for JAK2 and 2.12 μM for JAK3]+2× Substrate [Final concentration 217 nM for TYK2, 454.7 nM for JAK1, 200 nM for JAK2 and 257.4 nM for JAK3] is added to 384 well Optiplate. Composition of Kinase assay buffer used in the assay is as follows: HEPES 50 mM, EGTA 1 mM, MgCl2 10 mM, DTT2 mM, Tween-20 0.010 and water. Then the plates are shaken and then incubated at 26.5° C. for 60 min. At the end of the incubation, 10 μL of mixture of 2× detection mix [(EU3+Cryptate (1×)+Streptavidin-XL665 (final concentration: 62.5 nM) (HTRF KinEASE-TK kit Cat #62TK0PEC)] is added to the assay plate, shaken and incubated at 26.5° C. for 60 min. Plates are then read on a Perkin Elmer Envision for HTRF signal (665 nm reading/615 nm reading). After normalization to untreated controls, the percent inhibition of the HTRF signal at each compound concentration is calculated. The plot of percent inhibition versus the log of compound concentration is fit with a 4-parameter dose response equation to calculate IC50 values.

JAK1-JH1 = target: T2, JAK1-JH1 (Homo sapiens, UniProt P23458); experiment: HTRF-based selectivity assay, JAK1 catalytic domain; format: biochemical; conditions: kinase domain (JH1), ATP 21.43 μM
T2 construct: recombinant purified His or GST-tagged catalytic domain for each enzyme; made in house
Protocol: as §3

TYK2 [1] = target: T3, TYK2 (Homo sapiens, UniProt P29597); experiment: HEK-Blue IFNα/β reporter assay (SEAP) for TYK2 pseudokinase inhibition; format: cell-based; conditions: HEK-Blue IFNα/β cells, 1 ng/mL human recombinant IFNα
Method in brief: (§4)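 HEK-Blue cells carrying cytokine receptor and STAT3 or STAT1 SEAP reporter, pretreated 60 min with compound, then stimulated with 10 ng/mL IL-23 (22–24 h) or 1 ng/mL IFNα (16–18 h). SEAP read with QUANTI-Blue; IC50 by non-linear regression versus no-inhibitor and unstimulated controls.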

JAK3-JH1 = target: T4, JAK3-JH1 (Homo sapiens, UniProt P52333); experiment: HTRF-based selectivity assay, JAK3 catalytic domain; format: biochemical; conditions: kinase domain (JH1), ATP 2.12 μM
T4 construct: recombinant purified His or GST-tagged catalytic domain for each enzyme; purchased Carna biosciences 08-046
Protocol: as §3

IL-2 = experiment: Selectivity assay (SEAP) IL-2 reporter cells; format: cell-based; conditions: Homo sapiens, IL-2 reporter cells on HEK293 background, read-out: Selectivity assays (SEAP) nM or E-Max % IL-2
TYK2 [2] = target: T3, TYK2; experiment: HEK-Blue IL-23 reporter assay (SEAP) for TYK2 pseudokinase inhibition; format: cell-based; parameters: HEK-Blue™ IL-23 and IFNα/β cells with a stably-integrated cytokine receptor and STAT3 or STAT1; host or cells: HEK-Blue IL-23 / HEK-Blue IFNα/β cells (HEK293 background); conditions: HEK-Blue IL-23 cells, 10 ng/mL human recombinant IL-23, SEAP reporter; read-out: IL23 IC50
Method in brief: as §4

IFN-γ = experiment: Selectivity assay (SEAP) IFN-γ reporter cells; format: cell-based; conditions: Homo sapiens, IFN-γ reporter cells on HEK293 background, read-out: Selectivity assays (SEAP) nM or E-Max % IFN-γ
TYK2-JH1 = target: T5, TYK2-JH1 (Homo sapiens, UniProt P29597); experiment: HTRF-based selectivity assay, TYK2 catalytic domain; format: biochemical; conditions: kinase domain (JH1), ATP 20 μM
T5 construct: recombinant purified His or GST-tagged catalytic domain for each enzyme; made in house
T5 sequence (P29597 897-1176 limits assumed): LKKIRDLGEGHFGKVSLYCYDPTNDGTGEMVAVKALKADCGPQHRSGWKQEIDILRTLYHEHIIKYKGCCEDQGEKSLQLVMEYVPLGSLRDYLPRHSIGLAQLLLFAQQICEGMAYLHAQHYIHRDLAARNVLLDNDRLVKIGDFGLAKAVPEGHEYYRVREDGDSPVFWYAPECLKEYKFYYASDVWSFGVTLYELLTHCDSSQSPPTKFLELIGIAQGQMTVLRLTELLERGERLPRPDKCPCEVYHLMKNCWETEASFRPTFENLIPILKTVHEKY
Protocol: as §3

IL-2-pSTAT5 = experiment: STAT phosphorylation assay IL-2-pSTAT5; format: cell-based; conditions: Homo sapiens, 0.25 h; IL-2 (20 ng/ml) 15 min, phospho-STAT5 Western blot normalized to GAPDH; read-out: Selectivity assays (STATs) % Inhibition IL-2-pSTAT5
Protocol: as §1, with “The lysates were then transferred to 1.5 mL Eppendorf tubes and centrifuged for 5 minutes at 10000 rpm at 4° C. and the supernatants either stored at −80° C. or used for protein estimation.” left out
Samples were diluted 5× in cell lysis buffer and total protein concentration was determined in 96-well using Bradford Protein Assay following manufacturer's instructions. […]
as §2

T3 sequence (P29597 whole entry): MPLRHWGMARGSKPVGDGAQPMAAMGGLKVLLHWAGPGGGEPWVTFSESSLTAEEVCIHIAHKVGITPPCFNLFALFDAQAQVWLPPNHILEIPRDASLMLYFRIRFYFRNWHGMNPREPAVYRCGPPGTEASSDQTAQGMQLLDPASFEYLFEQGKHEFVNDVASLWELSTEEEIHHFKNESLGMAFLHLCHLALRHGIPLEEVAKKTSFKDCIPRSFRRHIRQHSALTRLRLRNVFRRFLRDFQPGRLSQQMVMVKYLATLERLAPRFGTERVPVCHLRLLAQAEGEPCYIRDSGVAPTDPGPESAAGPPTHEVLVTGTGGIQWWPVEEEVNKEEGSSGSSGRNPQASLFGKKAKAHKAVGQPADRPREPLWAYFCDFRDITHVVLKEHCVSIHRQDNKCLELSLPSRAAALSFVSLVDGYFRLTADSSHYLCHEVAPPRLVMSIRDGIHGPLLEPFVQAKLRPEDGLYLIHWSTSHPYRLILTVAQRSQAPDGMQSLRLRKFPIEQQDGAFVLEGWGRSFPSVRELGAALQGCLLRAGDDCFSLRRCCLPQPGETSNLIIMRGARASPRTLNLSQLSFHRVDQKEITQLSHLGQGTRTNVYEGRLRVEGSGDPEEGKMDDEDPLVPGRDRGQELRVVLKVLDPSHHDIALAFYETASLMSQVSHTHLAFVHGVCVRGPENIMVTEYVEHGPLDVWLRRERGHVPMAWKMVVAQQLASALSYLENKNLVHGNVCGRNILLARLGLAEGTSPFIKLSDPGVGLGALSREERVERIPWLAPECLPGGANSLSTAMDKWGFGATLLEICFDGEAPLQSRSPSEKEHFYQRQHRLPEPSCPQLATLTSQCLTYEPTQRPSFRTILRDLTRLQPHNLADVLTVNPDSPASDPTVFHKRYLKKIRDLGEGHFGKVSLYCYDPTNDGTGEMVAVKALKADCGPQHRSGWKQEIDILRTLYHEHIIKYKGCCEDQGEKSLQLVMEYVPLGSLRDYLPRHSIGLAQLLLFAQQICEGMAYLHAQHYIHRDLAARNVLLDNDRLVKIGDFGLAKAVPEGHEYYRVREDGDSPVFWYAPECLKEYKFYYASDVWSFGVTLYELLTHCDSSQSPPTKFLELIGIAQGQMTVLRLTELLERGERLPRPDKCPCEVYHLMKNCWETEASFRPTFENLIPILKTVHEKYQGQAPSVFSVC
T4 sequence (P52333 822-1111 limits assumed): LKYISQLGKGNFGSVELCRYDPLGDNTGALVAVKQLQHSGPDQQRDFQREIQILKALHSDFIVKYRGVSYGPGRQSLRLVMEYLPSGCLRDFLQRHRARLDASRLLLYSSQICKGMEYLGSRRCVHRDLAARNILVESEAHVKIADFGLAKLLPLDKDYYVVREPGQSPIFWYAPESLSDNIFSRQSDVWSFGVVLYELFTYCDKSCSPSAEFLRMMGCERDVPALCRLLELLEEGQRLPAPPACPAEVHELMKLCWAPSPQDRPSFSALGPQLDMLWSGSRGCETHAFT
T1 sequence (O60674 849-1124 limits assumed): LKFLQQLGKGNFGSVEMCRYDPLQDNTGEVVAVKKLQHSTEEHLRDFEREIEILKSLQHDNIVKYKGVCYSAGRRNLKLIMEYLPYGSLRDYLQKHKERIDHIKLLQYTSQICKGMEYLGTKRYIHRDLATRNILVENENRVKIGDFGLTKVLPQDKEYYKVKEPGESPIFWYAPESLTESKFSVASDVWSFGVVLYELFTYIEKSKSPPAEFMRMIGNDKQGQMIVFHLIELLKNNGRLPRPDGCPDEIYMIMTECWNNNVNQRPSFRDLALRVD
T2 sequence (P23458 875-1153 limits assumed): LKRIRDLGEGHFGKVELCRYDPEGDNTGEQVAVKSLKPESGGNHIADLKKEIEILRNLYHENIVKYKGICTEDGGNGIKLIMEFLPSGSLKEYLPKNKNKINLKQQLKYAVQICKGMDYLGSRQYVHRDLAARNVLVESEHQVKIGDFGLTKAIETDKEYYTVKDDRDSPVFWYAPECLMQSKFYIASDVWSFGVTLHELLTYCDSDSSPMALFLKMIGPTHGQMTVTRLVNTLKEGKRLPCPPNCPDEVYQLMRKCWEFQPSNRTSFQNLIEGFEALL

IC50 (JAK2-JH1) [µM]	IC50 (JAK1-JH1) [µM]	IC50 (TYK2 [1]) [µM]	IC50 (JAK3-JH1) [µM]	IC50 (IL-2) [nM]	IC50 (TYK2 [2]) [µM]	IC50 (IFN-γ) [nM]	IC50 (TYK2-JH1) [µM]	Compound	IC50 (IFN-γ-pSTAT1) [µM]	IC50 (IL-2-pSTAT5) [µM]
30 to 90	30 to 90	< 10	10 to 30	> 90000	< 10	30000 to 90000	30 to 90	O=C(Nc1cc2c(cn1)c(=O)[nH]n2-c1ccccc1)C1CC1 [Compound I-1, N-(3-oxo-1-phenyl-2,3-dihydro-1H-pyrazolo[4,3-c]pyridin-6-yl)cyclopropanecarboxamide]	> 90	–
< 10	> 90	< 10	< 10	30000 to 90000	< 10	10000 to 30000	10 to 30	Cc1cc(Nc2cc3c(cn2)c(=O)[nH]n3-c2ccccc2)nc(C)n1 [Compound I-3, 6-((2,6-dimethylpyrimidin-4-yl)amino)-1-phenyl-1,2-dihydro-3H-pyrazolo[4,3-c]pyridin-3-one]	> 90	> 90
10 to 30	> 90	< 10	10 to 30	> 90000	< 10	30000 to 90000	30 to 90	COc1cccc(-n2[nH]c(=O)c3cnc(Nc4cc(C)nc(C)n4)cc32)c1 [Compound I-17, 6-((2,6-dimethylpyrimidin-4-yl)amino)-1-(3-methoxyphenyl)-1,2-dihydro-3H-pyrazolo[4,3-c]pyridin-3-one]	> 90	30 to 90
> 90	> 90	< 10	> 90	> 90000	< 10	> 90000	> 90	O=c1[nH]n(-c2ccc(OC(F)(F)F)c(F)c2)c2cc(Nc3ccc(F)cn3)ncc12 [Compound I-95, 1-(3-fluoro-4-(trifluoromethoxy)phenyl)-6-((5-fluoropyridin-2-yl)amino)-1,2-dihydro-3H-pyrazolo[4,3-c]pyridin-3-one]	–	–

Source: US12668594B2, “TYK2 inhibitors and uses thereof” (Sudo Biosciences Limited, priority 2020, dated 2026)
